We go through 5 compounds from patent US20160250253A1, “STRONTIUM-CONTAINING COMPLEXES FOR TREATING GASTROESOPHAGEAL REFLUX AND BARRETT'S ESOPHAGUS” (priority 2013, published 2016).

For data set [1] the following is noted: oral, 680 mg of elemental strontium per day; cited from earlier work.
In data set [2] the test system is ulcer. The settings on record: cited from earlier work.
Data set [3] concerns Helicobacter pylori. The settings on record: cited from earlier work.
Data set [4] concerns pain of sore throat. Nature of the data set: Sore throat pain after gargling. The data set is classed as in vivo. The conditions noted are these: within several minutes after gargling, clinical observations. An excerpt: Since acidic material from the stomach is what causes the burning pain and inflammation in GER, it is hypothesized that strontium would be effective in treating GER.

In data set [5] the test system is histamine-induced itching. The conditions noted are these: topical; cited from earlier work.
Data set [6] relates to burning pain due to 1% lactic acid. In words: Burning pain from 1% lactic acid instilled on the conjunctiva of the eye. The conditions noted are these: 1% lactic acid on the conjunctiva, pilot studies in humans. The data set is classed as in vivo.
The test system of data set [7] is synaptotagmin-1. The settings on record: strontium substitutes for calcium; cited from earlier work.
In data set [8] the test system is Type C nociceptors. In words: Substance P release by Type C nociceptors, unpublished animal studies. Format: in vivo. The text has this: As mentioned above, acid from the stomach activates many pathways that trigger pain and inflammation such as the release of substance P, neurokinin A, and CGRP. […] While the precise molecular mechanism by which strontium inhibits substance P release is unknown, it is believed that the release of substance P, neurokinin A and CGRP occur together and by the same or similar trigger mechanism.

In data set [9] the test system is CICR pathway. The settings on record: cited from earlier work.
Data set [10] has as its system TCN activation by highly acidic chemical peels. In words: Burning pain from 70% glycolic acid, pH 0.6, applied to the skin. Format: in vivo, human. The settings on record: strontium mixed with 70% glycolic acid. The method, then: Nociceptors also have a CaSR that inhibits nociceptor activation when the extracellular concentration of calcium is raised above normal, or if a similar concentration of strontium is administered. […] When strontium is mixed with the acid, burning pain and stinging is suppressed by 80% or more so that any remaining sensory irritation is not bothersome.

Data set [11] has the same test system. The settings on record: topically applied, 70% glycolic acid, pH 0.6 on the skin, previous studies; cited from earlier work.
Data set [12] deals with KCa 3.1 (Homo sapiens, UniProt O15554). The conditions noted are these: cited from earlier work.
For data set [13], the system named is esophageal cancer cells (TE-2). The conditions noted are these: cited from earlier work.
The test system of data set [14] is acid-induced pain. In words: Double blind study of glycolic acid induced pain on the forearm. The conditions noted are these: 25% glycolic acid with or without 250 millimolar gallic acid, topical on forearm, pain rated 0-4 every minute for 10 minutes. The data set is classed as in vivo, human. The method, then: Briefly, in a double blind study, 25% glycolic acid solutions with or without 250 millimolar of gallic acid were applied to an 2×8 inch area of the forearm of the study participants. The pain level was assessed at time of application and every minute thereafter for 10 minutes. Study participants rated the pain levels on a 0-4 scale where 0 was no pain; 1 was slight pain; 2 was mild pain; 3 was moderate pain; and 4 was unbearable pain.

Data set [15] relates to cancer cell lines. The conditions noted are these: series of cancer cell lines; cited from earlier work.

Bounds are passed on as bounds.

As to `N#Cc1c(N(CC(=O)[O-])CC(=O)[O-])sc(C(=O)[O-])c1CC(=O)[O-].[Sr+2].[Sr+2]` [strontium ranelate], the “fraction absorbed by the GI tract into the blood” value in data set [1] is reported as “approximately 25%”.
Regarding `O=C(O)C=Cc1ccccc1` [cinnamic acid], the ulcer-preventing properties entry in [2] is given as “ulcer-preventing properties”. In addition, the H. pylori growth result in data set [3] is recorded as “inhibition of H. pylori growth”.
For `[Cl-].[Cl-].[Sr+2]` [strontium chloride solution, strontium chloride], in data set [4], the “pain of sore throat” value is “greatly relieved, if not eliminated”.
Turning to `[Sr+2]` [strontium], in data set [5], the injected histamine-induced itching entry is reported as “significantly inhibited”. Further, the “fraction absorbed by the GI tract into the blood” value in [1] is recorded as “approximately 25%”. Moreover, in data set [6], the burning pain entry is recorded as “inhibit burning pain”. Further, in data set [7], the “reduction of amplitude of synchronous neurotransmitter release” value is above 90%. For the same compound, the “substance P release” value in data set [8] is “inhibit substance P release”. Besides, the “ability to induce CICR relative to calcium” value in [9] was “over a hundred-fold less active than calcium”. Further, in data set [9] (greater than calcium), the “concentration in the ER relative to calcium” value is reported as “more than 150%”. Moreover, the “suppression of burning pain and stinging” value in data set [10] is recorded as at least 80%. The intense burning pain result in [11] is “virtually abolish”.
On to `O=C(O)c1cc(O)c(O)c(O)c1` [gallic acid, 3,4,5-trihydroxybenzoic acid], for which, in data set [12], the “block of KCa 3.1” value is given as “does not block”. The ulcer-preventing properties result in [2] is on record as “ulcer-preventing properties”. The apoptosis entry in [13] is listed as “induced apoptosis”. Moreover, the H. pylori growth result in data set [3] is on record as “inhibition of H. pylori growth”. Further, the acid induced pain entry in [14] was “effective in reducing or preventing the acid induced pain”. For the same compound, the cell proliferation result in data set [15] is on record as “significant inhibition of cell proliferation”.
